US10787423B2, “Piperazine and piperidine derivatives, their synthesis and use thereof in inhibiting VDAC oligomerization, apoptosis and mitochondria dysfunction” (THE NATIONAL INSTITUTE FOR BIOTECHNOLOGY IN THE NEGEV LTD., priority 2015, dated 2020)
Like-named read-outs stand apart in the source and are kept apart here.

How the values were obtained:
[1] = tested on: Cyto c release from mitochondria; assay: Selenite-induced Cytochrome c release from mitochondria in HEK-293 cells; assay type: cell-based; conditions: Homo sapiens, HEK293, compound 2 h then selenite 15 μM 4 h, means±SD (n=3)
Description: One of the ways cell apoptosis is activated is by release of Cytochrome c (Cyto c) from the mitochondria into cytosol. […] Cyto c released to the cytosol may be analyzed by immunoblotting using Cyto c-specific antibodies.
Cells treated with apoptosis inducers in the absence or presence of the tested compounds were harvested, washed twice with PBS, pH 7.4 and gently resuspended at 6 mg/ml in ice-cold buffer (100 mM KCl, 2.5 mM MgCl2, 250 mM sucrose, 20 mM HEPES/KOH pH 7.5, 0.2 mM EDTA, 1 mM dithiothreitol, 1 μg/ml leupeptin, […] and 0.1 mM PMSF) containing 0.025% digitonin and incubated for 10 min on ice. Samples were centrifuged at 10,000×g (relative centrifugal force—RCF) at 4° C. for 5 min to obtain supernatants (cytosolic extracts free of mitochondria) and pellet (fraction that contains mitochondria). Cytochrome c released to the cytosol was analyzed by immunoblotting using Cytochrome c-specific antibodies. Anti-VDAC1 and anti-GAPDH antibodies were used to verify that the cytosolic extracts are mitochondria-free.
c. Cytochrome c (Cyto c) release was determined as described above in Methods (Cytochrome c release from mitochondria). Briefly, to assess Cyto c release, cells were incubated on ice for 10 min with 0.025% digitonin, centrifuged, and the pellet (mitochondria—Mito) and supernatants (cytosol—Cytos) were subjected to SDS-PAGE and immunoblotting, using anti-Cyto c, antibodies. Anti-VDAC1 and anti-GAPDH antibodies were used to verify that the cytosolic extracts are mitochondria-free. The results of Cyto c release from the mitochondria as induced by selenite are presented as immunoblots, with the cytosolic and mitochondrial fractions confirmed by immunoblotting of GAPDH (glyceraldehyde-3-phosphate dehydrogenase) and VDAC1, respectively, in the FIG. 15d. The data are presented as percent inhibition. The results shown correspond to means±SD (n=3). The closed circle (●) indicates VBIT-4 (compound of Formula 1), the open circle (◯) indicates compound of Formula 10 (AKOS-022), and an open square (□) indicates VBIT-3 (compound of Formula 2).
d. […]

[2] = biological target: T1, purified VDAC1 (Rattus norvegicus, UniProt Q9Z2L0); assay: Microscale thermophoresis (MST) binding to purified VDAC1; conditions: MST, purified VDAC1 133 nM, 20 min incubation; means±SD (n=3); read-out: VDAC1 binding affinities
T1 construct: rat liver mitochondria (5 mg/ml) in 10 mM Tris-HCl, pH 7.2, were incubated with 2% LDAO; from tissue; host or cells: rat liver mitochondria
T1 sequence (Q9Z2L0 whole entry): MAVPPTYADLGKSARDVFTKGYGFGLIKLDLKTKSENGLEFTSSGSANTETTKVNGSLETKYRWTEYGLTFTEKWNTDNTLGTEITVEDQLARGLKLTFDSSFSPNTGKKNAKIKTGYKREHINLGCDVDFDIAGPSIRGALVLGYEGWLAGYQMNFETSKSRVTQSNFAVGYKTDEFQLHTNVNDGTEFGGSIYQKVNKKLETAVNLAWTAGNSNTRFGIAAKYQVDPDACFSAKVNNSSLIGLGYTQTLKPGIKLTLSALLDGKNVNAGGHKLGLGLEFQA
Description: To obtain quantitative parameters of this interaction and derive a dissociation constant, e.g. a microscale thermophoresis (MST) interaction assay may be performed. In this manner, dissociation values are derived from the curves showing the affinity of the compounds of the invention to VDAC.
Briefly, rat liver mitochondria (5 mg/ml) in 10 mM Tris-HCl, pH 7.2, were incubated with 2% LDAO at 0° C. for 20 min, followed by centrifugation (30 min, 14,000 g) and the obtained supernatant was loaded onto a dry celite:hydroxyapatite (2:1) column. VDAC1 was eluted with a solution containing 2% LDAO, 10 mM Tris-HCl, pH 7.2, 50 mM NaCl, and 20 to 22 mM NaH2PO4, with VDAC1 detection by Coomassie blue staining. The VDAC1-containing fractions were dialyzed against 10 mM Tris-HCl, pH 7.2, and subjected to a second chromatography step on a carboxymethyl-cellulose (CMC) column from which VDAC1 was eluted with a solution containing 10 mM Tris-HCl, pH 7.2, 0.1% LDAO and 500 mM NaCl, detected as above. The VDAC1-containing fractions were collected and used for VDAC1 channel conductance and MST assays.
MST analysis was performed using a NanoTemper Monolith NT.115 apparatus. […]
Purified VDAC1 (133 nM), labeled using the NanoTemper fluorescent protein-labeling Kit BLUE (Nano Temper technologies, Munich, Germany), according to the manufactory instructions, was incubated with increasing concentrations of the following tested compounds: compound of Formula 10 (AKOS-022), compound of Formula 2 (VBIT-3), or racemic compound of Formula 1 (VBIT-4). After 20 min of incubation, the samples (3-5 μL) were loaded into MST-grade glass capillaries (Monolith NT Capillaries), and the thermophoresis process was measured using the Monolith-NT115 apparatus.
Fmax and Fmin represent the maximal and minimal fluorescence, respectively and F the fluorescence measured in the presence of the tested compound.
VDAC1 binding affinities of tested compounds were calculated from the MST measurements.

[3] = tested on: SHSY5Y cells; assay: 6-hydroxydopamine-induced cell toxicity, XTT cell viability; assay type: cell-based; conditions: for IC50: Homo sapiens, SH-SY5Y, 24 h, read-out: IC50 (cell viability protection)
Description: SHSY5Y (obtained from ATCC) were grown at 37° C. under an atmosphere of 95% air and 5% CO2 in DMEM medium supplemented with 10% fetal bovine serum, 2 mM L-glutamine, 1000 U/ml penicillin, and 1 mg/ml streptomycin until 60-70% of confluence. Further, the cells were incubated with increasing concentrations of 6-hydroxydopamine. After 24 hours, and cells viability was assayed using the XTT (2,3-bis-(2-methoxy-4-nitro-5-sulfophenyl)-2H-tetrazolium-5-carboxanilide) method, according to the supplier instructions. […] The 50% decrease in cell survival was obtained at about 50 μM of 6-hydroxydopamine.
Cell viability as assayed following 24 h incubation with different concentrations of 6-hydroxydopamine in the absence (closed squares (▪)) or in the presence of VBIT-12 (15 μM, closed circles (●)) is shown.
Similarly, cells that were incubated with increasing concentrations of VBIT-12 in presence of either 30 or 50 μM of 6-hydroxydopamine that decreased cell viability by […], respectively, remained viable after 24 hours of the incubation. Cells viability is charted in FIG. 24C versus the concentrations of VBIT-12. Closed squares (▪) indicate control group without 6-hydroxydopamine, open circles (◯) indicates cells' viability when exposed to 30 μM of the 6-hydroxydopamine, and closed circles (●) indicate cells viability at 50 μM of the 6-hydroxydopamine.

[4] = biological target: VDAC1 (Homo sapiens, UniProt P21796); assay: Selenite-induced VDAC1 oligomerization in HeLa cells, EGS cross-linking; assay type: cell-based; parameters: endogenous in cells; host or cells: HeLa; conditions: 22 h with selenite 8 μM and increasing concentrations
VDAC1, sequence (P21796 whole entry): as the sequence (Q9Z2L0 whole entry) above, with N55T, V129M, S160A, V227I counted along it
Description: Appropriate test cells (2.5-3 mg/ml) in PBS, were harvested after the treatment and incubated with the cross-linking reagent EGS at a ratio of 100-300 μM for sample of 2-3 mg protein/ml concentration (pH 8.3) for 15 minutes. Protein concentration was determined according to Lowry assay. Samples (60-80 μg protein) were subjected to SDS-PAGE by a standard technique and immunoblotting was performed using anti-VDAC1 antibodies. Gels were electro-transferred onto nitrocellulose membranes for immuno-staining. The membranes were incubated with a blocking solution containing 5% non-fat dry milk and 0.1% Tween-20 in Tris-buffered saline, followed by incubation with monoclonal anti-VDAC1, anti-Cytochrome c, anti-AIF or anti-actin antibodies. Membranes were then incubated with HRP-conjugated anti-mouse or anti-rabbit IgG (1:10,000), serving as secondary antibodies. Antibody labeling was detected by chemiluminescence. […] Quantitative analysis of immuno-reactive VDAC1 dimer, trimer and multimer bands was performed using FUSION-FX (Vilber Lourmat, France).
Cells (2.5 mg/ml) were washed with and resuspended in PBS, pH 8.3 and incubated with membrane-permeable cross-linker EGS (250 μM) at 30° C. for 15 min and then subjected to SDS-PAGE and immunoblotting using anti-VDAC1 antibodies. […] Cell death was analyzed using propidium iodide (PI) staining and flow cytometry.

IC50 [1] [µM]	Kd [2] [µM]	selenite-induced VDAC1 oligomerization [4]	SMILES	protection against 6-hydroxydopamine-induced decreased cell viability ([3]; 15 μM VBIT-12, 24 h, different 6-hydroxydopamine concentrations)	IC50 ([3]; 30 μM 6-hydroxydopamine) [µM]	IC50 ([3]; 50 μM 6-hydroxydopamine) [µM]
1.8 ± 0.24	17 ± 5.3	–	O=C(CC(CO)N1CCN(c2ccc(OC(F)(F)F)cc2)CC1)Nc1ccc(Cl)cc1 (racemic) [Formula 1, N-(4-chlorophenyl)-4-hydroxy-3-(4-(4-(trifluoromethoxy)phenyl)-piperazin-1-yl)butanamide]	–	–	–
–	–	Inhibited	O=C(O)CNC(=O)C1(Nc2ccccc2)CCN(Cc2cccc3ccccc23)CC1 [Formula 3]	protected against the reduction of cell survival by all 6-hydroxydopamine concentration used	~1	~2
